Experimental data published in US20210137117A1, “HERBICIDAL MIXTURES” (Bayer Aktiengesellschaft, priority 2017, published 2021).
Values joined by “and” are separate entries in the source; they are usually repeats but may differ in a detail not shown here. Identical values can stand only once.

Assays:
Test in all cases: Pre-emergence action against weeds (greenhouse)
Type in all cases: in vivo
[1] = system: ALOMY—sensitive (Alopecurus myosuroides); conditions: for Herbicidal action ALOMY sensitive: pre-emergence
Description: (§1) Depending on the trial conditions, the soil of the standard field soil is sterile or not sterile.
(§2) The amount of water used for spray application was 300l/ha.
ALOMY—sensitive (Alopecurus myosuroides) sensitive to customary herbicidally active compounds.
(§3) Insofar as herbicidal effects of the compositions according to the invention compared to mixtures of the prior art or compared to components applied individually against economically important mono- and dicotyledonous harmful plants were the centre of attention, the synergistic herbicidal activities were calculated using Colby's formula (cf. S. R. Colby; Weeds 15 (1967), 20-22): […]

[2] = system: ALOMY—resistant (Alopecurus myosuroides); conditions: for Herbicidal action ALOMY resistant: pre-emergence
Description: as §1, §2
ALOMY—resistant (Alopecurus myosuroides) resistant to herbicidally active compounds of the HRAC groups A and B; population mixture of field origin having increased metabolic resistance (IMR) and some target site resistance (TSR).
as §3

[3] = system: LOLRI—sensitive (Lolium rigidum); conditions: for Herbicidal action LOLRI sensitive: pre-emergence
Description: as §1, §2
LOLRI—sensitive (Lolium rigidum) sensitive to customary herbicidally active compounds.
as §3

[4] = system: LOLRI—resistant (Lolium rigidum); conditions: for Herbicidal action LOLRI resistant: pre-emergence
Description: as §1, §2
LOLRI—resistant (Lolium rigidum) resistant to herbicidally active compounds of the HRAC groups A and B; population mixture of field origin having increased metabolic resistance (IMR) and some target site resistance (TSR).
as §3

[5] = system: AVEFA (Avenafatua); conditions: for Herbicidal action AVEFA: pre-emergence
Description: as §1, §2
AVEFA (Avenafatua)—Wild oat
as §3

[6] = system: BROST (Bromus sterilis); conditions: for Herbicidal action BROST: pre-emergence
Description: as §1, §2
BROST (Bromus sterilis)—Bromegrass, barren
as §3

[7] = system: PAPRH (Papaver rhoeas)
Description: as §1, §2
PAPRH (Papaver rhoeas)—Poppy, common
as §3

[8] = system: SORHA (Sorghum halepense); conditions: for Herbicidal action SORHA: pre-emergence
Description: as §1, §2
SORHA (Sorghum halepense)—Johnsongrass
as §3

[9] = system: CENCY (Centaurea cyanus); conditions: for Herbicidal action CENCY: pre-emergence
Description: as §1, §2
CENCY (Centaurea cyanus)—Cornflower
as §3

[10] = system: VERHE (Veronica hederaefolia); conditions: for Herbicidal action VERHE: pre-emergence
Description: as §1, §2
VERHE (Veronica hederaefolia)—Speedwell, iveleaf
as §3

[11] = system: EMEAU (Emex australis); conditions: for Herbicidal action EMEAU: pre-emergence
Description: as §1, §2
EMEAU (Emex australis)—Cathead
as §3

[12] = system: RAPRA (Raphanus raphanistrum); conditions: for Herbicidal action RAPRA: pre-emergence
Description: as §1, §2
RAPRA (Raphanus raphanistrum)—Charlock, jointed
as §3

[13] = system: BRSNW (Brassica napus); conditions: for Herbicidal action BRSNW: pre-emergence
Description: as §1, §2
BRSNW (Brassica napus)—Rape, winter
as §3

[14] = system: TRZAS (Triticum aestivum); conditions: for Herbicidal action (crop damage) TRZAS: pre-emergence
Description: as §1, §2
TRZAS (Triticum aestivum)—Wheat, spring
as §3

[15] = system: HORVS (Hordeum vulgare); conditions: for Herbicidal action (crop damage) HORVS: pre-emergence
Description: as §1, §2
HORVS (Hordeum vulgare)—Barley, spring
as §3

`Cc1ccccc1CO[C@@H]1C[C@@]2(C(C)C)CC[C@]1(C)O2` (racemic) [Cinmethylin, (+/−)-2-exo-(2-methylbenzyloxy)-1-methyl-4-isopropyl-7-oxabicyclo[2.2.1]heptane] gave a herbicidal action ([1]; 10 g AS/ha) of 0%, a herbicidal action ([1]; 25 g AS/ha) of 80% and a herbicidal action ([1]; 50 g AS/ha) of 80%. For the same compound, the herbicidal action ([1]; 100 g AS/ha) was 90%, the herbicidal action ([1]; 250 g AS/ha) was 100% and the herbicidal action ([1]; 500 g AS/ha) was 100%. The “Herbicidal action ALOMY sensitive” value ([1]; dose 50 g AS/ha) was 80, the herbicidal action ([2]; 10 g AS/ha) was 0% and the herbicidal action ([2]; 25 g AS/ha) was 60%. It also gave a herbicidal action ([2]; 50 g AS/ha) of 70%, a herbicidal action ([2]; 100 g AS/ha) of 70% and a herbicidal action ([2]; 250 g AS/ha) of 90%. For the same compound, the herbicidal action ([2]; 500 g AS/ha) was 100%, the “Herbicidal action ALOMY resistant” value ([2]; dose 50 g AS/ha) was 70 and the herbicidal action ([3]; 10 g AS/ha) was 0%. It also gave a herbicidal action ([3]; 25 g AS/ha) of 70%, a herbicidal action ([3]; 50 g AS/ha) of 90% and a herbicidal action ([3]; 100 g AS/ha) of 100%. For the same compound, the herbicidal action ([3]; 250 g AS/ha) was 100%, the herbicidal action ([3]; 500 g AS/ha) was 100% and the “Herbicidal action LOLRI sensitive” value ([3]; dose 50 g AS/ha) was 90. The herbicidal action ([4]; 10 g AS/ha) was 0%, the herbicidal action ([4]; 25 g AS/ha) was 70% and the herbicidal action ([4]; 50 g AS/ha) was 85% and 100%. For the same compound, the herbicidal action ([4]; 100 g AS/ha) was 100%, the herbicidal action ([4]; 250 g AS/ha) was 100% and the herbicidal action ([4]; 500 g AS/ha) was 100%. The “Herbicidal action LOLRI resistant” value ([4]; dose 50 g AS/ha) was 100, the herbicidal action ([5]; 10 g AS/ha) was 0% and the herbicidal action ([5]; 25 g AS/ha) was 0%. For the same compound, the herbicidal action ([5]; 50 g AS/ha) was 0%, the herbicidal action ([5]; 100 g AS/ha) was 25% and the herbicidal action ([5]; 250 g AS/ha) was 50%. For the same compound, the herbicidal action ([5]; 500 g AS/ha) was 70%, the “Herbicidal action AVEFA” value ([5]; dose 50 g AS/ha) was 0 and the herbicidal action ([6]; 10 g AS/ha) was 0%. For the same compound, the herbicidal action ([6]; 25 g AS/ha) was 20%, the herbicidal action ([6]; 50 g AS/ha) was 50% and the herbicidal action ([6]; 100 g AS/ha) was 100%. For the same compound, the herbicidal action ([6]; 250 g AS/ha) was 100%, the herbicidal action ([6]; 500 g AS/ha) was 100% and the “Herbicidal action BROST” value ([6]; dose 50 g AS/ha) was 50. It also gave a herbicidal action ([7]; 10 g AS/ha) of 0%, a herbicidal action ([7]; 25 g AS/ha) of 0% and a herbicidal action ([7]; 50 g AS/ha) of 0%. For the same compound, the herbicidal action ([8]; 50 g AS/ha) was 65%, the herbicidal action ([8]; 100 g AS/ha) was 70% and the herbicidal action ([8]; 250 g AS/ha) was 80%. For the same compound, the herbicidal action ([8]; 500 g AS/ha) was 100%, the “Herbicidal action SORHA” value ([8]; dose 50 g AS/ha) was 65 and the herbicidal action ([9]; 50 g AS/ha) was 0%. It also gave a herbicidal action ([9]; 100 g AS/ha) of 0%, a herbicidal action ([9]; 250 g AS/ha) of 30% and a herbicidal action ([9]; 500 g AS/ha) of 80%. For the same compound, the “Herbicidal action CENCY” value ([9]; dose 50 g AS/ha) was 0, the herbicidal action ([10]; 10 g AS/ha) was 0% and the herbicidal action ([10]; 25 g AS/ha) was 0%. For the same compound, the herbicidal action ([10]; 50 g AS/ha) was 0%, the herbicidal action ([10]; 100 g AS/ha) was 0% and the herbicidal action ([10]; 250 g AS/ha) was 0%. For the same compound, the herbicidal action ([10]; 500 g AS/ha) was 0%, the “Herbicidal action VERHE” value ([10]; dose 50 g AS/ha) was 0 and the herbicidal action ([11]; 10 g AS/ha) was 0%. The herbicidal action ([11]; 25 g AS/ha) was 0%, the herbicidal action ([11]; 50 g AS/ha) was 0% and the herbicidal action ([11]; 100 g AS/ha) was 0%. For the same compound, the herbicidal action ([11]; 250 g AS/ha) was 0%, the herbicidal action ([11]; 500 g AS/ha) was 0% and the “Herbicidal action EMEAU” value ([11]; dose 50 g AS/ha) was 0. It also gave a herbicidal action ([12]; 10 g AS/ha) of 0%, a herbicidal action ([12]; 25 g AS/ha) of 0% and a herbicidal action ([12]; 50 g AS/ha) of 0%. It also gave a herbicidal action ([12]; 100 g AS/ha) of 0%, a herbicidal action ([12]; 250 g AS/ha) of 30% and a herbicidal action ([12]; 500 g AS/ha) of 40%. The “Herbicidal action RAPRA” value ([12]; dose 50 g AS/ha) was 0, the herbicidal action ([13]; 10 g AS/ha) was 0% and the herbicidal action ([13]; 25 g AS/ha) was 0%. It also gave a herbicidal action ([13]; 50 g AS/ha) of 0%, a herbicidal action ([13]; 100 g AS/ha) of 0% and a herbicidal action ([13]; 250 g AS/ha) of 0%. The herbicidal action ([13]; 500 g AS/ha) was 10%, the “Herbicidal action BRSNW” value ([13]; dose 50 g AS/ha) was 0 and the herbicidal action ([14]; 10 g AS/ha) was 0%. It also gave a herbicidal action ([14]; 25 g AS/ha) of 0%, a herbicidal action ([14]; 50 g AS/ha) of 30% and a herbicidal action ([14]; 100 g AS/ha) of 40%. For the same compound, the herbicidal action ([14]; 250 g AS/ha) was 75%, the herbicidal action ([14]; 500 g AS/ha) was 90% and the “Herbicidal action (crop damage) TRZAS” value ([14]; dose 50 g AS/ha) was 30. The herbicidal action ([15]; 10 g AS/ha) was 0%, the herbicidal action ([15]; 25 g AS/ha) was 0% and the herbicidal action ([15]; 50 g AS/ha) was 30%. It also gave a herbicidal action ([15]; 100 g AS/ha) of 40%, a herbicidal action ([15]; 250 g AS/ha) of 65% and a herbicidal action ([15]; 500 g AS/ha) of 70%. For the same compound, the “Herbicidal action (crop damage) HORVS” value ([15]; dose 50 g AS/ha) was 30.

For `CCOC(=O)C1=NN(c2ccc(Cl)cc2Cl)C(C)(C(=O)OCC)C1` (stereo not shown) [Mefenpyr, ethyl 1-(2,4-dichlorophenyl)-5-(ethoxycarbonyl)-5-methyl-2-pyrazoline-3-carboxylate], the herbicidal action ([1]; 300 g AS/ha) was 0%, the “Herbicidal action ALOMY sensitive” value ([1]; dose 10 g AS/ha) was 0 and the “Herbicidal action ALOMY sensitive” value ([1]; dose 100 g AS/ha) was 0. For the same compound, the herbicidal action ([2]; 300 g AS/ha) was 0%, the “Herbicidal action ALOMY resistant” value ([2]; dose 10 g AS/ha) was 0 and the “Herbicidal action ALOMY resistant” value ([2]; dose 100 g AS/ha) was 0. The herbicidal action ([3]; 300 g AS/ha) was 0%, the “Herbicidal action LOLRI sensitive” value ([3]; dose 10 g AS/ha) was 0 and the “Herbicidal action LOLRI sensitive” value ([3]; dose 100 g AS/ha) was 0. The herbicidal action ([4]; 300 g AS/ha) was 0%, the “Herbicidal action LOLRI resistant” value ([4]; dose 10 g AS/ha) was 0 and the “Herbicidal action LOLRI resistant” value ([4]; dose 100 g AS/ha) was 0. For the same compound, the herbicidal action ([5]; 300 g AS/ha) was 0%, the “Herbicidal action AVEFA” value ([5]; dose 10 g AS/ha) was 0 and the “Herbicidal action AVEFA” value ([5]; dose 100 g AS/ha) was 0. For the same compound, the herbicidal action ([6]; 300 g AS/ha) was 0%, the “Herbicidal action BROST” value ([6]; dose 10 g AS/ha) was 0 and the “Herbicidal action BROST” value ([6]; dose 100 g AS/ha) was 0. The herbicidal action ([8]; 300 g AS/ha) was 0%, the “Herbicidal action SORHA” value ([8]; dose 10 g AS/ha) was 0 and the “Herbicidal action SORHA” value ([8]; dose 100 g AS/ha) was 0. For the same compound, the herbicidal action ([9]; 300 g AS/ha) was 0%, the “Herbicidal action CENCY” value ([9]; dose 10 g AS/ha) was 0 and the “Herbicidal action CENCY” value ([9]; dose 100 g AS/ha) was 0. The herbicidal action ([10]; 300 g AS/ha) was 0%, the “Herbicidal action VERHE” value ([10]; dose 10 g AS/ha) was 0 and the “Herbicidal action VERHE” value ([10]; dose 100 g AS/ha) was 0. For the same compound, the herbicidal action ([11]; 300 g AS/ha) was 0%, the “Herbicidal action EMEAU” value ([11]; dose 10 g AS/ha) was 0 and the “Herbicidal action EMEAU” value ([11]; dose 100 g AS/ha) was 0. The herbicidal action ([12]; 300 g AS/ha) was 0%, the “Herbicidal action RAPRA” value ([12]; dose 10 g AS/ha) was 0 and the “Herbicidal action RAPRA” value ([12]; dose 100 g AS/ha) was 0. The herbicidal action ([13]; 300 g AS/ha) was 0%, the “Herbicidal action BRSNW” value ([13]; dose 10 g AS/ha) was 0 and the “Herbicidal action BRSNW” value ([13]; dose 100 g AS/ha) was 0. The herbicidal action ([14]; 300 g AS/ha) was 0%, the “Herbicidal action (crop damage) TRZAS” value ([14]; dose 10 g AS/ha) was 0 and the “Herbicidal action (crop damage) TRZAS” value ([14]; dose 100 g AS/ha) was 0. The herbicidal action ([15]; 300 g AS/ha) was 0%, the “Herbicidal action (crop damage) HORVS” value ([15]; dose 10 g AS/ha) was 0 and the “Herbicidal action (crop damage) HORVS” value ([15]; dose 100 g AS/ha) was 0.
